{"source": "patent US12397016B2", "about": "“Sulfated oligosaccharides having anti-inflammatory activity” (The University of North Carolina at Chapel Hill, priority 2017, dated 2025)", "test_system": "APAP-induced liver injury in mice", "assay": "Delayed treatment 6 h post-APAP, comparison with NAC", "type": "in vivo, mouse", "conditions": "read at 24 h, FIG. 5D", "description": "To compare the 18-mer's effectiveness to N-acetyl cysteine (NAC), 300 mg kg^−1 NAC at pH 7.5 in sterile saline was injected intraperitoneal 30 min post-APAP. In a separate experiment, 300 mg kg^−1 NAC or 0.34 mg/kg 18-mer were administered 6 h post-APAP, then at 18 h post-APAP, 0.17 mg kg^−1 18-mer was administered to the 18-mer treated group. At 24 h post-APAP, mice were euthanized and blood and liver tissue were collected.\nPlasma ALT was measured using the ALT Infinity reagent (Thermo Fisher Scientific) following the manufacturer's instructions. Plasma TNF-α was measured using Mouse TNF-α DuoSet Kit (R&D Systems, Minneapolis, Minnesota, United States of America) according to the manufacturer's instructions. Plasma HMGB1 levels were determined using HMGB1 ELISA Kit (Tecan US of Tecan Trading AG, Mannedorf, Switzerland) according to the manufacturer's instructions. Plasma syndecan-1 levels were determined using Mouse Syndecan-1 ELISA (CellSciences) according to manufacturer's instructions. Hepatic GSH levels were determined using Glutathione Assay Kit (Cayman Chemicals, Ann Arbor, Michigan, United States of America) according to the manufacturer's instructions.", "note": "“Also recorded” adds a separate entry of the source.", "data": [{"compound": "CC(=O)N[C@@H](CS)C(=O)O", "note": "[NAC, N-acetyl-cysteine]", "values": [{"measurement": "protective effect (ALT) when administered six hours post-APAP", "value": "loses its protective effect; also recorded: loses effectiveness"}]}]}
